Data taken from paper PMC6911004, “Fragment-based screening identifies molecules targeting the substrate-binding ankyrin repeat domains of tankyrase” (Scientific Reports, 2019).
Blank lines part the entries; values can stand above or below the compound they belong to. Where a SMILES comes first, the peptide text is derived from it. [ ]: non-standard residue; d: D form.

Legend:
Format in all cases: binding
TNKS2 ARC4 [1] = molecular target: T1, TNKS2 ARC4 (Homo sapiens, UniProt Q9H2K2); experiment: Fluorescence polarisation (FP) competition assay with Cy5-labelled TBM peptide probe; conditions: for IC50: 5 nM Cy5-RSPPDGQS probe, 5 µM TNKS2 ARC4; for FP competition, result in words: peptide titrated up to 1 mM
T1 construct: The cell was filled with TNKS2 ARC4 (488–649); His6-GST; made in house; host or cells: E. coli
T1 sequence (Q9H2K2 488-649): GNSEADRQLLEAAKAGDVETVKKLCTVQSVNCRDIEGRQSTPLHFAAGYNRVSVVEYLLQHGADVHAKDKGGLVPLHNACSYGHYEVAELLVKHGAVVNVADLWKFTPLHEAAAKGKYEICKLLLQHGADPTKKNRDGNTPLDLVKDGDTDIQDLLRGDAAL
Description: Given the anticipated impairment of cell permeability by the N-terminal TBM arginine, we investigated whether the guanidine group could be substituted. To prioritise synthesis efforts, we followed an in-silico docking approach, exploring the importance of the positive charge and hydrogen bonding interactions, linker lengths/flexibility and side chain geometry (see Supplementary Materials and Methods for details). From commercially available side chain alternatives, we identified five potential candidates for R replacements: 1H-imidazole-5-pentanoic acid, 1H-imidazole-1-pentanoic acid, 7-aminoheptanoic acid, D-arginine and L-citrulline (Supplementary Fig. 1). We next synthesised 3BP2 TBM octapeptides, incorporating the five arginine substituents at position 1, followed by fluorescence polarisation (FP) assays to assess competition of the peptides with a Cy5-labelled TBM peptide probe (Supplementary Fig. 1). We used a 16-mer TBM peptide (LPHLQRSPPDGQSFRSW, W introduced to measure A280) derived from the model substrate 3BP2, a signalling adapter protein[4], as a positive control for a competitor, and a corresponding non-binding TBM peptide bearing a glycine-to-arginine substitution at position 6[4] as a negative control. […]
Fluorescence polarisation assay
Unlabelled arginine substituent peptides were titrated up to 1 mM in the presence of 5 nM of a labelled peptide probe (Cy5-RSPPDGQS, JPT Peptide Technologies) and 5 µM TNKS2 ARC4. 3BP2 16-mer peptide was used as a positive control, and the same peptide with the glycine at position 6 mutated to arginine (G6R) was used as a negative control. Plus F ProxiPlates (PerkinElmer) were used with a 2103 Envision Multilabel plate reader (PerkinElmer), fitted with 620 nm (excitation) and 688 nm (emission) filters. Filter bandwidths were 10 nm. A Nanodrop 2000 was used for measuring protein and probe concentrations by UV absorption. TNKS2 ARC4 protein was thawed from -80 ° C, and centrifuged at 13,000 […]
Two independent experiments were performed in technical duplicate. A 2´ stock solution containing TNKS2 ARC4 protein (10 µM) and fluorescently tagged probe (10 nM) in assay buffer (25 mM HEPES-NaOH pH 7.5, 100 mM NaCl, 1 mM TCEP, 0.01% CHAPS) was prepared. A 2-fold dilution series of untagged peptide in assay buffer was made (0 – 2 mM).
Protein and peptide stock solutions were mixed 1:1. Blank samples contained assay buffer only. The plate was sealed, centrifuged for 1 min at 1000 ´ g, and then incubated in the dark for 30 min before reading. Readings were taken with 50 flashes per well, and measured in millipolarisation (mP) units. Data were exported to Microsoft Excel, and analysed in GraphPad Prism 6.0. The means of technical duplicate values were calculated for both experiments, and FP values were plotted against unlabelled peptide concentration. Curves were normalised using the overall mean maximum and minimum FP values of the control 3BP2 TBM peptide. Curves were fitted using a non-linear regression, log(inhibitor) vs. response – variable slope (four parameters) model.
Multiple sequence alignments and amino acid identity mapping
Sequences of tankyrase ARCs were aligned using ClustalX (version 2.0) 4. […]
Supplementary Figure 1. Binding of TBM peptides containing arginine substituents to TNKS2 ARC4, measured in a fluorescence polarisation (FP) competition assay. Data points are means of technical duplicates from two independent experiments. […]

TNKS2 ARC4 [2] = molecular target: T1, TNKS2 ARC4; experiment: T2 relaxation-edited ligand-observed NMR assay; conditions: for binding to TNKS2 ARC4 by ligand-observed NMR, in words: DSF hit validation
Description: We next sought close structural analogues of hit fragments 3 and 5 to gain early insights into structure-activity relationships (SAR) and binding modes of hit fragments. We initially tested the analogues using both relaxation-edited and waterLOGSY NMR assays against TNKS2 ARC4 (Table 1), followed by protein-observed NMR if binding was detected in both ligand-observed NMR experiments.
(§1) Fragments were dispensed in duplicate into a 384-well plate (250 nL, 100 mM stock in DMSO). Wells were backfilled with DMSO (2.25 μL). Tankyrase ARC protein (47.5 μL in 25 mM HEPES, pH 7.5, 100 mM NaCl, 2 mM TCEP, 10% D2O; 20 μM final protein concentration in the assay) was added to the ‘protein’ samples; buffer only (47.5 μL) was added to the ‘compound-only’ samples. Solutions were transferred to 1.7 mm NMR tubes using a Gilson liquid handling system. ^1H NMR spectra were recorded, with the DMSO and water signals dampened. A relaxation spin filter was applied at 400 ms[65]. Data were processed using Bruker Topspin 3.14. Lines were broadened with LB = 3.0, and the baseline was corrected between 6.0–10.0 ppm. The average integral for all peaks between 6.0–10.0 ppm was calculated, and the difference between compound-only and compound-plus-protein samples was compared. A reduction in signal integrals of ≥15% was classified as a hit. For competitive experiments, 3BP2 16-mer peptide (100 μM) was added, and the spectra were recorded and processed as above. The variability in signal reduction in the relaxation-edited experiment was previously determined as approximately ± 10% (Liu et al., unpublished observations).

TNKS2 ARC5 [3] = molecular target: T2, TNKS2 ARC5 (Homo sapiens, UniProt Q9H2K2); experiment: T2 relaxation-edited ligand-observed NMR assay; conditions: DSF hit validation; for binding to TNKS2 ARC5 by ligand-observed NMR, in words: relaxation-edited and waterLOGSY; for competition with the 3BP2 TBM peptide by relaxation-edited NMR: ARC used for competition not given
T2 construct: followed by TNKS2 ARC5 (1 μL, 100 μM stock); His6-GST; made in house; host or cells: E. coli
Description: (§2) 39 hits from the DSF screen were suitable for follow-up by ligand-observed NMR methods. We re-purchased fragments and performed T2 relaxation-edited (CPMG-edited) and waterLOGSY experiments for each fragment with TNKS2 ARC5. We explored saturation transfer difference (STD) NMR, also using TNKS2 ARC5, but the assay was not sensitive enough to produce a reliable binding signal, likely due to the relatively small size of a single ARC protein (data not shown). High ligand concentrations were required to achieve sufficient signal, which in turn could lead to false-positive hits due to non-specific binding.
Using the relaxation-edited assay, we tested each fragment in three independent measurements (Fig. 2C), unless we obtained two negative results (non-binding) in the first two experiments. […] As a negative NOE for the compound-only sample could indicate aggregation, we flagged these compounds as potentially problematic. We identified 14 fragments that bound to TNKS2 ARC5 by both relaxation-edited and waterLOGSY methods (0.78% hit rate). We next tested whether binding of these fragments occurred competitively with the 3BP2 TBM peptide, and also if they bound to TNKS2 ARC4, as competition with peptide binders at various different ARCs will be a prerequisite for an efficient substrate binding antagonist. Three fragments (1, 2, 3) bound to both TNKS2 ARC4 and ARC5 and were competitive with the TBM peptide (0.16% hit rate) (Fig. 2E). Three further fragments also bound to both ARCs, but were not TBM competitive by NMR.
as §1

TNKS2 ARC5 [4] = molecular target: T2, TNKS2 ARC5; experiment: WaterLOGSY NMR assay
Description: as §2
Using the relaxation-edited assay, we tested each fragment in three independent measurements (Fig. 2C), unless we obtained two negative results (non-binding) in the first two experiments. […] As a negative NOE for the compound-only sample could indicate aggregation, we flagged these compounds as potentially problematic. We identified 14 fragments that bound to TNKS2 ARC5 by both relaxation-edited and waterLOGSY methods (0.78% hit rate). […]
Fragments were dispensed in duplicate into a 384-well plate (250 nL, 100 mM stock in DMSO). […] Solutions were transferred to 1.7 mm NMR tubes using a Gilson liquid handling system. ^1H NMR spectra were recorded, with the DMSO signal dampened. […]

T2 relaxation-edited: competition with 3BP2 TBM peptide (TNKS2 ARC4 [2]; 3BP2 16-mer peptide 100 μM): competitive
Compound: NC(=O)Cc1coc2ccc3ccccc3c12 [compound 4]

FP competition, result in words (TNKS2 ARC4 [1]): poor competition
Compound: citrulline

binding to TNKS2 ARC4 by ligand-observed NMR, in words (TNKS2 ARC4 [2]): bound
binding to TNKS2 ARC5 by ligand-observed NMR, in words (TNKS2 ARC5 [3]): bound
competition with the 3BP2 TBM peptide by relaxation-edited NMR (TNKS2 ARC5 [3]): competitive
Compound: COc1ccc2c(OC(C)=O)coc2c1 [compound 2]

binding to TNKS2 ARC4 by ligand-observed NMR, in words (TNKS2 ARC4 [2]): bound
binding to TNKS2 ARC5 by ligand-observed NMR, in words (TNKS2 ARC5 [3]): bound
competition with the 3BP2 TBM peptide by relaxation-edited NMR (TNKS2 ARC5 [3]): competitive
Compound: O=S(=O)(Nc1cccc(O)c1)c1ccc(Cl)cc1 [compound 1]
waterLOGSY (TNKS2 ARC5 [4]): negative NOE signal

More lines, now with the values behind:

Compound: N=C(N)NCCC[C@@H](N)C(=O)N[C@@H](CO)C(=O)N1CCC[C@H]1C(=O)N1CCC[C@H]1C(=O)N[C@@H](CC(=O)O)C(=O)NCC(=O)N[C@@H](CCC(N)=O)C(=O)N[C@@H](CO)C(=O)O [D-arginine] (H-[dR]SPPDGQS-OH)
IC50 (TNKS2 ARC4 [1]): 175 µM

Compound: 7-aminoheptanoic acid
FP competition, result in words (TNKS2 ARC4 [1]): poor competition

Compound: N=C(N)NCCC[C@H](N)C(=O)N[C@@H](CO)C(=O)N1CCC[C@H]1C(=O)N1CCC[C@H]1C(=O)N[C@@H](CC(=O)O)C(=O)NCC(=O)N[C@@H](CCC(N)=O)C(=O)N[C@@H](CO)C(=O)O [8-mer RSPPDGQS TBM peptide, RSPPDGQS, reference compound] (H-RSPPDGQS-OH)
IC50 (TNKS2 ARC4 [1]): 34 µM
